Assay in all cases: DTP human tumour cell line panel, 48 h
Assay [1] deals with MALME-3M melanoma.
In assay [2] the test system is SK-OV-3 ovarian.
For assay [3], the system named is CCRF-CEM leukemia.
For assay [4], the system named is SK-MEL-28 melanoma.
Assay [5] deals with UACC-62 melanoma.
The subject of assay [6] is SF-268 CNS.
The subject of assay [7] is HT29 colon.
Assay [8] deals with NCI-H522 lung.

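Grown in 96-well plates, cells were treated for 48 hours with each compound at five concentrations. Insufficient inhibition: endpoint recorded as highest concentration tested. GI50 = concentration required for 50% inhibition of growth. TGI denotes the concentration required for complete inhibition of growth.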 Where only a bound is given, the exact number is not on record here.

Usually TGI stands for the concentration giving total growth inhibition. Low values mean greater sensitivity of the cells, high ones lower sensitivity of the cells. On to `CCCC1(CC(=O)O)OCCc2c1[nH]c1ccccc21` (stereo not drawn), for which the TGI in assay [1], in assay [2], in assay [3], in assay [4], in assay [5] and in assay [6] was > 100 µM throughout.
As to `COC(=O)C(=O)CC(=O)CCn1[nH]c(=O)c(Cl)c(Cl)c1=O`, the TGI in assay [1], in assay [7], in assay [4], in assay [5], in assay [6] and in assay [8] was > 100 µM each time.
With `COc1cc(NS(=O)(=O)c2ccc(C)cc2)c2nccnc2c1`, the TGI in assay [1] was > 100 µM; in assay [7], > 100 µM; in assay [2], > 100 µM; in assay [3], 81.2 µM; in assay [4] it was > 100 µM; in assay [5], 34.6 µM. For the same compound, the TGI in assay [6] was determined as 93.7 µM; in assay [8], 70.2 µM.
Consider `N#C/C(=C/c1cccc(Oc2ccccc2)c1)c1ccccc1`, for which the total growth inhibition concentration (TGI) in assay [1], in assay [7], in assay [2], in assay [3], in assay [4] and in assay [5] was > 100 µM each time. The total growth inhibition concentration (TGI) in assay [6] and in assay [8] was > 100 µM throughout.
In general, GI50 refers to the concentration giving 50% growth inhibition. Turning to `CCC[CH2][Sn]([CH2]CCC)([O]C(=O)CN)[O]C(=O)CN`, the GI50 in assay [1] is 6.1 µM; in assay [7], > 100 µM; in assay [2], > 100 µM; in assay [3], 5.93 µM; in assay [4], 29.2 µM; in assay [5], 17.5 µM. In addition, the GI50 was 20.6 µM in assay [6] and 11.6 µM in assay [8]. The concentration for total growth inhibition (TGI) in assay [1] is 41.2 µM; in assay [7], > 100 µM; in assay [2], > 100 µM; in assay [3], 51.8 µM; in assay [4], > 100 µM; in assay [5], 60.5 µM. The results for the concentration for total growth inhibition (TGI) in assay [6] and in assay [8] were 71.6 µM and 38 µM, respectively.
As for `Cc1ccc(S(=O)(=O)OC2CC=CC2)cc1`, the TGI in assay [1], in assay [7], in assay [2], in assay [3], in assay [4] and in assay [5] was > 100 µM each time.
Consider `Cc1ccc(S(=O)(=O)N/N=C2\CCCCC23CCC(=O)NC3)cc1` (stereo not drawn), for which the total growth inhibition concentration (TGI) in assay [1], in assay [2], in assay [3], in assay [4], in assay [5] and in assay [6] was > 100 µM throughout. The total growth inhibition concentration (TGI) in assay [8] was > 100 µM.
In the case of `CC(=O)C1C(c2ccccc2)C2(C)OC(=O)C(C#N)C12C` (stereo not drawn), the concentration for total growth inhibition (TGI) in assay [1], in assay [2], in assay [3], in assay [4], in assay [5] and in assay [6] was > 100 µM in each case.
Regarding `COc1ccc2nc3cc(Cl)ccc3c(Sc3ccc([N+](=O)[O-])cc3C)c2c1`, the TGI in assay [1], in assay [2], in assay [3], in assay [4], in assay [5] and in assay [6] was > 100 µM each time. In assay [8], the TGI is > 100 µM.
Consider `NC(CCCC(N)P(=O)(O)O)P(=O)(O)O` (stereo not drawn), for which the total growth inhibition concentration (TGI) in assay [1], in assay [7], in assay [2], in assay [3], in assay [4] and in assay [5] was > 100 µM each time. Besides, in assay [8], the TGI was > 100 µM.
As to `CC(=O)Oc1cc2c(cc1OC(C)=O)C1(C)CCC2(C)c2cc(OC(C)=O)c(OC(C)=O)cc21`, the concentration for total growth inhibition (TGI) is > 100 µM in assay [1]; > 100 µM in assay [7]; 72.5 µM in assay [2]; 11.4 µM in assay [3]; > 100 µM in assay [4]; 29.5 µM in assay [5]. Moreover, in assay [6], the TGI was > 100 µM.
For `C=CC[P@]1(=O)O[C@H](c2ccccc2)[C@H](C)N1C`, the TGI in assay [1], in assay [7], in assay [2], in assay [3], in assay [4] and in assay [5] was > 100 µM each time. Further, in assay [6], the TGI was > 100 µM.
`COc1ccc(C=O)cc1O[Si](C)(C)C(C)(C)C`: the concentration for total growth inhibition (TGI) in assay [1], in assay [7], in assay [2], in assay [3], in assay [5] and in assay [6] was > 100 µM throughout.
As to `CC1(O)C(C)(O)C2(C)O[Te]3(OC12C)OC1(C)C(C)(O)C(C)(O)C1(C)O3` (stereo not drawn), the concentration for total growth inhibition (TGI) is > 100 µM in assay [1]; > 100 µM in assay [7]; 22.9 µM in assay [3]; 38.1 µM in assay [4]; > 100 µM in assay [5]; 42.2 µM in assay [8].
